Assay results as given in paper PMC9374744, “Structural basis for receptor selectivity and inverse agonism in S1P5 receptors” (Nature Communications, 2022).
Several values for one entry are separate records, joined by “and”; a condition that tells them apart may be missing. Equal values may be shown once.

Assays:
[1] = target: human S1P5 V115A mutant (Homo sapiens, UniProt Q9H228, V115A); experiment: BRET-based cAMP Gi signaling assay, S1P5 V115A; settings: V115A, Suppl. Fig. 6e
[2] = target: human WT S1P5 receptor (Homo sapiens, UniProt Q9H228); experiment: BRET-based cAMP (EPAC biosensor) Gi signaling assay, WT S1P5; settings: WT, Suppl. Fig. 6e
[3] = target: human S1P5 T79A mutant (Homo sapiens, UniProt Q9H228, T79A); experiment: BRET-based cAMP Gi signaling assay, S1P5 T79A; settings: T79A, Suppl. Fig. 6c
Sequence of human S1P5 T79A mutant (Q9H228 whole entry T79A): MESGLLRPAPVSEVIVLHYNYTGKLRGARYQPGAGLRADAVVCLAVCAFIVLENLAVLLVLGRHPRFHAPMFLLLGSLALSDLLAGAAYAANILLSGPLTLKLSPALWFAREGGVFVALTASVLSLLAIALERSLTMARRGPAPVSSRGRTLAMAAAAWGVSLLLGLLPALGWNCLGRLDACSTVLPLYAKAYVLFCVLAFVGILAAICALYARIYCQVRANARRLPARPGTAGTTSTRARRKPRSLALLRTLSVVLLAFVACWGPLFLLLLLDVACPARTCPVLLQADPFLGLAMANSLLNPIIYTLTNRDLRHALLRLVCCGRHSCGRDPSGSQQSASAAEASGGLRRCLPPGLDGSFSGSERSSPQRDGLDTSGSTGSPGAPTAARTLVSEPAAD

Sequence of human S1P5 V115A mutant (Q9H228 whole entry V115A): as the sequence (Q9H228 whole entry T79A) above, with A79T, V115A counted along it
Sequence of human WT S1P5 receptor (Q9H228 whole entry): as the sequence (Q9H228 whole entry T79A) above, with A79T counted along it

For CCCCCCCCCCCCC/C=C/[C@@H](O)[C@@H](N)COP(=O)(O)O [S1P, sphingosine-1-phosphate], which “BRET signal, raw replicate readings” value ([1]; S1P 12500 nM) is on record?
The value was 0.7675.

And the “BRET signal, raw replicate readings” value ([1]; S1P 25000 nM)?
The value was 0.7654 and 0.7708 and 0.7701 and 0.7667 and 0.7652 and 0.763 and 0.7734 and 0.7704 and 0.7743.

And the “BRET signal, raw replicate readings” value ([2]; S1P 0.685185 nM)?
Its value is 0.7239 and 0.7229 and 0.7227 and 0.7322 and 0.7297 and 0.7339 and 0.7264 and 0.7321 and 0.7345.

And the “BRET signal, raw replicate readings” value ([2]; S1P 2.05556 nM)?
Its value is 0.7237 and 0.7264 and 0.7244 and 0.734 and 0.7307 and 0.7332 and 0.7317 and 0.7311 and 0.7362.

What about the “BRET signal, raw replicate readings” value ([2]; S1P 6.16667 nM) of the same compound?
Its value is 0.7266 and 0.7231 and 0.7269 and 0.7291 and 0.734 and 0.731 and 0.7324 and 0.7315 and 0.7331.

What about the “BRET signal, raw replicate readings” value ([2]; S1P 18.5 nM) of the same compound?
Its value is 0.7325 and 0.7286 and 0.7291 and 0.731 and 0.733 and 0.7374 (2×) and 0.7372 and 0.7364.

What about the “BRET signal, raw replicate readings” value ([2]; S1P 55.5 nM) of the same compound?
Its value is 0.7419 and 0.743 and 0.7446 and 0.7524 and 0.7535 and 0.7545 and 0.7491 and 0.7497 (2×).

What about the “BRET signal, raw replicate readings” value ([2]; S1P 185 nM) of the same compound?
Its value is 0.7589 and 0.7571 and 0.7588 and 0.7688 and 0.7682 and 0.766 and 0.76 and 0.7599 and 0.7596.

And the “BRET signal, raw replicate readings” value ([2]; S1P 781.25 nM)?
The value was 0.7647 and 0.7661 and 0.7611 and 0.7735 and 0.7751 and 0.7748 and 0.7643 and 0.7625 and 0.7654.

And the “BRET signal, raw replicate readings” value ([2]; S1P 3125 nM)?
Its value is 0.7721 and 0.769 and 0.7694 and 0.7819 and 0.7829 and 0.7848 and 0.7658 and 0.7706 and 0.7596.

And the “BRET signal, raw replicate readings” value ([2]; S1P 12500 nM)?
The value was 0.7775 and 0.7718 and 0.7733 and 0.7869 and 0.7878 and 0.7756 and 0.7691 and 0.7737 and 0.7605.

And the “BRET signal, raw replicate readings” value ([2]; S1P 25000 nM)?
The value was 0.7765 and 0.7709 and 0.7762 and 0.7879 and 0.7898 and 0.785 and 0.7721 and 0.7678 and 0.7681.

What about the “BRET signal, raw replicates” value ([3]; [S1P] 0.228395 nM) of the same compound?
The value was 0.728 and 0.7297 and 0.7309 and 0.7306 and 0.7448 and 0.7165 and 0.733 and 0.732 and 0.7327.

What about the “BRET signal, raw replicates” value ([3]; [S1P] 0.685185 nM) of the same compound?
Its value is 0.7302 and 0.7321 and 0.7319 and 0.7287 and 0.7311 and 0.7348 and 0.7332 and 0.7318 and 0.7294.

What about the “BRET signal, raw replicates” value ([3]; [S1P] 2.05556 nM) of the same compound?
The value was 0.7333 and 0.7313 and 0.7311 and 0.7385 and 0.7367 and 0.733 and 0.7328 and 0.7316 and 0.7345.

What about the “BRET signal, raw replicates” value ([3]; [S1P] 6.16667 nM) of the same compound?
The value was 0.7337 and 0.7364 and 0.7232 and 0.7384 and 0.7383 and 0.7348 and 0.7304 and 0.7359 and 0.7321.

And the “BRET signal, raw replicates” value ([3]; [S1P] 18.5 nM)?
Its value is 0.7347 (2×) and 0.7375 and 0.7387 and 0.7386 and 0.7311 and 0.7341 and 0.7354 and 0.7312.

And the “BRET signal, raw replicates” value ([3]; [S1P] 55.5 nM)?
Its value is 0.7438 and 0.7423 (2×) and 0.7417 and 0.7457 and 0.7434 and 0.7489 and 0.7415 and 0.7424.

And the “BRET signal, raw replicates” value ([3]; [S1P] 185 nM)?
Its value is 0.7491 (2×) and 0.7494 and 0.7531 and 0.7514 and 0.7551 and 0.7506 and 0.752 and 0.7559.

What about the “BRET signal, raw replicates” value ([3]; [S1P] 781.25 nM) of the same compound?
The value was 0.7686 and 0.7529 and 0.774 and 0.7668 (2×) and 0.7667 and 0.7673 and 0.7649 and 0.7637.

And the “BRET signal, raw replicates” value ([3]; [S1P] 3125 nM)?
The value was 0.7697 and 0.7671 and 0.7674 and 0.7739 and 0.7792 and 0.7768 and 0.7709 (2×) and 0.7684.

And the “BRET signal, raw replicates” value ([3]; [S1P] 12500 nM)?
Its value is 0.7734 and 0.7682 and 0.7706 and 0.7812 and 0.7771 and 0.7806 and 0.7763 and 0.7799 and 0.7701.
